Measured values reported in ChEMBL document CHEMBL1781994, “Estrogenic activity of chemical constituents from Tephrosia candida” (J Nat Prod, 2011).

Biological target: T1, Estrogen receptor (Homo sapiens, UniProt P03372)
T1 sequence (P03372 whole entry): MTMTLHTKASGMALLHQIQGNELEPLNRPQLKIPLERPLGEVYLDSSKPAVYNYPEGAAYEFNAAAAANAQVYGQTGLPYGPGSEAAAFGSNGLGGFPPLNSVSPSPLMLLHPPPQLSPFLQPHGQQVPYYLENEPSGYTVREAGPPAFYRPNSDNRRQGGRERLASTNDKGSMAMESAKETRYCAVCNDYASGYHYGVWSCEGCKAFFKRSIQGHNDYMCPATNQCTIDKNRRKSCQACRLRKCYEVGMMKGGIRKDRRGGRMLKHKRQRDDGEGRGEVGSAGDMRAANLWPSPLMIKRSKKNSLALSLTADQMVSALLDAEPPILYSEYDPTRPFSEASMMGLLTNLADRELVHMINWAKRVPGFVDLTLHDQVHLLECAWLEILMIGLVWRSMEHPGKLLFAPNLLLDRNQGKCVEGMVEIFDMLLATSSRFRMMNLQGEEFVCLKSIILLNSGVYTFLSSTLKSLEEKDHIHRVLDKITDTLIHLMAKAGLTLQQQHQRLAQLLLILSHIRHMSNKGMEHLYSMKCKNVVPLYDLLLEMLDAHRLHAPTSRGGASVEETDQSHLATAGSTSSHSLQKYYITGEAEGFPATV
Description: Inhibition of fluorescence-labeled 17beta-estradiol binding to ERalpha receptor after 2 hrs by fluorometric analysis

First: C=C1CC[C@@H](O)[C@]2(C)CC[C@@](O)(C(C)C)[C@H](O)[C@@H]12
Second: COc1cc(O)c(/C=C\C(C)(C)O)c2c1C(=O)CC(c1ccc(O)cc1)O2 (stereo not given) [TEPHROCANDIDIN B]
The IC50 of the first is 2.8-fold higher: 2800 µM for the first, 1000 µM for the second. The second is the more potent here.

Compared with `COc1ccc2c(c1)OC[C@]1(O)c3cc4c(cc3O[C@H]21)OCO4`, `COc1cc(O)c(/C=C\C(C)(C)O)c2c1C(=O)C[C@@H](c1ccccc1)O2` [TEPHROCANDIDIN A] is lower in IC50: over 5000 µM for the first, 3500 µM for the second. The second is the more potent here.

`COc1cc(O)c(/C=C\C(C)(C)O)c(O)c1C(=O)/C=C/c1ccc(O)cc1` [CANDIDACHALCONE] was tested, and the IC50 was 80 µM.

Biological target: T2, Estrogen receptor (Homo sapiens) (UniProt P03372)
T2 sequence (whole entry): T1 sequence (P03372 whole entry)
Assay: Inhibition of fluorescence-labeled 17beta-estradiol binding to ERalpha receptor at 5 mM after 2 hrs by fluorometric analysis

In order of rising inhibition:
1. COc1ccc2c(c1)OC[C@]1(O)c3cc4c(cc3O[C@H]21)OCO4  36.2%
2. C=C1CC[C@@H](O)[C@]2(C)CC[C@@](O)(C(C)C)[C@H](O)[C@@H]12  67.3%
3. COc1cc(O)c(/C=C\C(C)(C)O)c2c1C(=O)C[C@@H](c1ccccc1)O2 [TEPHROCANDIDIN A]  70.1%
4. COc1cc(O)c(/C=C\C(C)(C)O)c2c1C(=O)CC(c1ccc(O)cc1)O2 (stereo not given) [TEPHROCANDIDIN B]  86.2%
5. COc1cc(O)c(/C=C\C(C)(C)O)c(O)c1C(=O)/C=C/c1ccc(O)cc1 [CANDIDACHALCONE]  95.1%
